Common to all, as to assay type: functional
Assay [1] has as its system Mycobacterium tuberculosis. The experiment in a line: Antimycobacterial activity against isoniazid-resistant Mycobacterium tuberculosis H37Rv ATCC 35822 assessed as inhibition of bacterial growth incubated for 48 hrs by broth microdilution assay.
In assay [2] the test system is Mycobacterium tuberculosis. The experiment in a line: Antimycobacterial activity against ethambutol-resistant Mycobacterium tuberculosis H37Rv ATCC 35837 assessed as inhibition of bacterial growth incubated for 48 hrs by broth microdilution assay.
The subject of assay [3] is Mycobacterium tuberculosis. The experiment in a line: Antimycobacterial activity against Streptomycin-resistant Mycobacterium tuberculosis H37Rv ATCC 35820 assessed as inhibition of bacterial growth incubated for 48 hrs by broth microdilution assay. On the technique in general: Broth dilution looks for growth in wells or tubes with falling amounts of substance.
The subject of assay [4] is Mycobacterium tuberculosis. The experiment in a line: Antimycobacterial activity against rifampicin-resistant Mycobacterium tuberculosis H37Rv ATCC 35838 assessed as inhibition of bacterial growth incubated for 48 hrs by broth microdilution assay.

In brackets after ≈: the same amount, converted by molar mass.

As usually defined, the MIC is the lowest concentration found to suppress growth.

Consider `COC(=O)c1cc(-c2cccc(NC(=O)c3ccc(/C=C/C(=O)c4ccc(Cl)cc4Cl)cc3)c2)on1`, for which the MIC is over 64 µg/mL in assay [1], over 64 µg/mL in assay [2], 1 µg/mL (≈ 1.92 µM) in assay [3] and 64 µg/mL (≈ 123 µM) in assay [4].

Consider `COC(=O)c1cc(-c2cccc(NC(=O)c3ccc(/C=C/C(=O)c4ccc(Cl)cc4)cc3)c2)on1`, for which the MIC in assay [1] is over 64 µg/mL; in assay [2], over 64 µg/mL; in assay [3] it was 2 µg/mL (≈ 4.11 µM); in assay [4] it was 2 µg/mL (≈ 4.11 µM).

With `CCOC(=O)c1cc(-c2cccc(NC(=O)c3ccc(/C=C/C(=O)c4ccc(Cl)cc4)cc3)c2)on1`, the MIC is 32 µg/mL (≈ 63.9 µM) in assay [1], 4 µg/mL (≈ 7.99 µM) in assay [2], 64 µg/mL (≈ 128 µM) in assay [3] and 0.5 µg/mL (≈ 0.998 µM) in assay [4].

Consider `COC(=O)c1cc(-c2cccc(NC(=O)c3ccc(/C=C/C(=O)c4cccc(Cl)c4)cc3)c2)on1`, for which the MIC in assay [1] stood at 0.5 µg/mL (≈ 1.03 µM); in assay [2], 0.12 µg/mL (≈ 0.246 µM); in assay [3] it was 0.5 µg/mL (≈ 1.03 µM); in assay [4], 0.5 µg/mL (≈ 1.03 µM).

For `CCOC(=O)c1cc(/C=C/c2c(Cl)cncc2Cl)on1`, the MIC came out at 4 µg/mL (≈ 12.8 µM) in assay [1], 8 µg/mL (≈ 25.5 µM) in assay [2], 8 µg/mL (≈ 25.5 µM) in assay [3] and 1 µg/mL (≈ 3.19 µM) in assay [4].

In the case of `COC(=O)c1cc(-c2cccc(NC(=O)c3ccc(/C=C/C(=O)c4ccc(F)cc4F)cc3)c2)on1`, the MIC in assay [1] is 1 µg/mL (≈ 2.05 µM); in assay [2], 0.12 µg/mL (≈ 0.246 µM); in assay [3] it was 2 µg/mL (≈ 4.09 µM); in assay [4] it was 0.25 µg/mL (≈ 0.512 µM).

As for `CN[C@@H]1[C@H](O[C@H]2[C@H](O[C@H]3[C@H](O)[C@@H](O)[C@H](N=C(N)N)[C@@H](O)[C@@H]3N=C(N)N)O[C@@H](C)[C@]2(O)C=O)O[C@@H](CO)[C@H](O)[C@H]1O` [STREPTOMYCIN], the MIC in assay [1] is 1 µg/mL (≈ 1.72 µM); in assay [2], 2 µg/mL (≈ 3.44 µM); in assay [3] it was over 64 µg/mL; in assay [4], 1 µg/mL (≈ 1.72 µM).

In the case of `COC(=O)c1cc(-c2cccc(NC(=O)c3ccc(/C=C/C(=O)c4ccc(C)cc4)cc3)c2)on1`, the minimal inhibitory concentration (MIC) in assay [1] was 0.5 µg/mL (≈ 1.07 µM); in assay [2], over 64 µg/mL; in assay [3], 0.25 µg/mL (≈ 0.536 µM); in assay [4], over 64 µg/mL.

`COC(=O)c1cc(-c2cccc(NC(=O)c3ccc(/C=C/C(=O)c4ccccc4Cl)cc3)c2)on1`: the MIC stood at 1 µg/mL (≈ 2.05 µM) in assay [1], 0.25 µg/mL (≈ 0.513 µM) in assay [2], 0.5 µg/mL (≈ 1.03 µM) in assay [3] and 0.25 µg/mL (≈ 0.513 µM) in assay [4].

As for `COC(=O)c1cc(-c2cccc(NC(=O)c3ccc(/C=C/C(=O)c4ccc(OC)cc4OC)cc3)c2)on1`, the MIC in assay [1] was 2 µg/mL (≈ 3.9 µM); in assay [2] it was 0.25 µg/mL (≈ 0.488 µM); in assay [3] it was 2 µg/mL (≈ 3.9 µM); in assay [4], 0.25 µg/mL (≈ 0.488 µM).

Take `COC(=O)c1cc(-c2cccc(NC(=O)c3ccc(/C=C/C(=O)c4ccc(CC(C)C)cc4)cc3)c2)on1`: the MIC is over 64 µg/mL in assay [1], over 64 µg/mL in assay [2], 1 µg/mL (≈ 1.97 µM) in assay [3] and 16 µg/mL (≈ 31.5 µM) in assay [4].

As to `CO[C@H]1/C=C/O[C@@]2(C)Oc3c(C)c(O)c4c(O)c(c(/C=N/N5CCN(C)CC5)c(O)c4c3C2=O)NC(=O)/C(C)=C\C=C\[C@H](C)[C@H](O)[C@@H](C)[C@@H](O)[C@@H](C)[C@H](OC(C)=O)[C@@H]1C` [RIFAMPIN], the MIC in assay [1] stood at 0.03 µg/mL (≈ 0.0365 µM); in assay [2], 0.03 µg/mL (≈ 0.0365 µM); in assay [3] it was 0.03 µg/mL (≈ 0.0365 µM); in assay [4] it was 64 µg/mL (≈ 77.8 µM).

As for `COC(=O)c1cc(-c2cccc(NC(=O)c3ccc(/C=C/C(=O)c4ccc(N5CCOCC5)cc4)cc3)c2)on1`, the MIC in assay [1] came out at 0.12 µg/mL (≈ 0.223 µM); in assay [2], 0.12 µg/mL (≈ 0.223 µM); in assay [3], 2 µg/mL (≈ 3.72 µM); in assay [4], 0.12 µg/mL (≈ 0.223 µM).

Turning to `COC(=O)c1cc(-c2ccc(NC(=O)c3ccc(/C=C/C(=O)c4ccc(Cl)cc4)cc3)cc2)on1`, the minimal inhibitory concentration (MIC) in assay [1] came to 0.5 µg/mL (≈ 1.03 µM); in assay [2], 0.25 µg/mL (≈ 0.513 µM); in assay [3] it was 8 µg/mL (≈ 16.4 µM); in assay [4], 0.5 µg/mL (≈ 1.03 µM).

Take `CC[C@@H](CO)NCCN[C@@H](CC)CO` [ETHAMBUTOL]: the MIC in assay [1] amounted to 4 µg/mL (≈ 19.6 µM); in assay [2], 32 µg/mL (≈ 157 µM); in assay [3], 1 µg/mL (≈ 4.89 µM); in assay [4], 1 µg/mL (≈ 4.89 µM).

`NNC(=O)c1ccncc1` [ISONIAZID]: the MIC is over 64 µg/mL in assay [1], 0.03 µg/mL (≈ 0.219 µM) in assay [2], 0.03 µg/mL (≈ 0.219 µM) in assay [3] and 0.03 µg/mL (≈ 0.219 µM) in assay [4].

In the case of `COC(=O)c1cc(-c2cccc(NC(=O)c3ccc(/C=C/C(=O)c4ccccc4C)cc3)c2)on1`, the minimum inhibitory concentration (MIC) came to 1 µg/mL (≈ 2.14 µM) in assay [1], 0.12 µg/mL (≈ 0.257 µM) in assay [2], 2 µg/mL (≈ 4.29 µM) in assay [3] and 0.25 µg/mL (≈ 0.536 µM) in assay [4].

With `CCCOc1ccc(C(=O)/C=C/c2ccc(C(=O)Nc3cccc(-c4cc(C(=O)OC)no4)c3)cc2)cc1`, the MIC turned out to be 0.12 µg/mL (≈ 0.235 µM) in assay [1], 0.06 µg/mL (≈ 0.118 µM) in assay [2], 2 µg/mL (≈ 3.92 µM) in assay [3] and 0.03 µg/mL (≈ 0.0588 µM) in assay [4].

As for `CCOc1ccc(C(=O)/C=C/c2ccc(C(=O)Nc3cccc(-c4cc(C(=O)OC)no4)c3)cc2)cc1`, the MIC in assay [1] stood at 0.5 µg/mL (≈ 1.01 µM); in assay [2], 0.06 µg/mL (≈ 0.121 µM); in assay [3], 0.5 µg/mL (≈ 1.01 µM); in assay [4], 0.03 µg/mL (≈ 0.0604 µM).

The record behind these values is ChEMBL document CHEMBL4823271, “Synthesis and structure-activity relationship of new chalcone linked 5-phenyl-3-isoxazolecarboxylic acid methyl esters potentially active against drug resistant Mycobacterium tuberculosis” (Eur J Med Chem, 2021).
